According to patent publication US20240059688A1, “CONOLIDINE ANALOGUES AS SELECTIVE ACKR3 MODULATORS FOR THE TREATMENT OF CANCER” (Luxembourg Institute of Health (LIH), priority 2020, published 2024):

Assays:
Format in all cases: cell-based
CCR3 = target: T1, CCR3 (Homo sapiens, UniProt P51677); test: NanoBiT β-arrestin-1 recruitment, receptor selectivity panel, CCR3; conditions: higher concentrations (3 μM, 10 μM); FIG. 3 sections B and C
T1 construct: expressed in transfected cells; host or cells: U87
T1 sequence (P51677 1-355): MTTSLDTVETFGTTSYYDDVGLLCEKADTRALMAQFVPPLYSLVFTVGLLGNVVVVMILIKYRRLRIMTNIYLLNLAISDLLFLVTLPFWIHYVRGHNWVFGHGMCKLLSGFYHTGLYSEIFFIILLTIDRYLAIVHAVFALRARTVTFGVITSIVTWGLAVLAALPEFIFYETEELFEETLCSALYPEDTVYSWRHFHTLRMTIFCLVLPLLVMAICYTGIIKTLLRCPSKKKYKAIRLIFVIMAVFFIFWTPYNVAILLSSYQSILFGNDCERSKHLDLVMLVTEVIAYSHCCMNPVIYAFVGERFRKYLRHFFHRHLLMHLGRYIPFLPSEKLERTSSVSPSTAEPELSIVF
Procedure: To further assess the selectivity profile of the compounds of the invention towards ACKR3, the ability to activate the 21 classical and 4 atypical chemokines receptors and related receptors was tested using the NanoBiT assay based β-arrestin-1 recruitment described previously. The 4 classical opioid receptors described above were also included in the experimental setup. The compounds WW-1 (conolidine) and WW-12 were tested at three different concentrations, 1 μM, 3 μM and 10 μM.
This possible off-target effect was further characterized by comparing the ability of the two molecules to activate receptors ACKR4, CX3CR1 and CCR3 with reference ligands for the receptors, namely CCL19, CX3CL1 and CCL13.
Ligand-induced β-arrestin recruitment to chemokine and opioid receptors was monitored by NanoLuc complementation assay (NanoBiT, Promega). […] Ligand-induced, β-arrestin to GPCRs was evaluated with a Mithras LB940 luminometer (Berthold Technologies, running on MicroWin 2010 5.19 software (Mikrotek Laborsysteme)) for 20 minutes.
For single dose screening experiments on all chemokine receptors(FIG. 3), the results are represented as percentage of signal monitored with 100 nM of one known agonist chemokine listed in the IUPHAR repository of chemokine receptor ligands which was added as positive control.

ACKR3 = ACKR3 (Homo sapiens, UniProt P25106); test: GPCR β-arrestin screening (PathHunter gpcrMAX/orphanMAX), ACKR3; conditions: conolidine 10 μM; over 240 receptors tested
Procedure: (§1) In an effort to identify the target of conolidine among the GPCR family, we undertook a large scale screening program using a β-arrestin recruitment assay based on β-galactosidase complementation (PathHunter, DiscoverX). Over 240 receptors were tested for their ability to be activated or inhibited by conolidine (10 μM) (data not shown). These included 168 GPCRs from the gpcrMAX panel, covering over 60 distinct receptor families such as adrenergic, dopamine, P2Y or serotonin and 74 GPCRs from the orphanMAX panel.

ADRA2B = target: T2, ADRA2B (Homo sapiens, UniProt P18089); test: GPCR β-arrestin screening (PathHunter gpcrMAX/orphanMAX), ADRA2B; conditions: conolidine 10 μM
T2 sequence (P18089 1-450): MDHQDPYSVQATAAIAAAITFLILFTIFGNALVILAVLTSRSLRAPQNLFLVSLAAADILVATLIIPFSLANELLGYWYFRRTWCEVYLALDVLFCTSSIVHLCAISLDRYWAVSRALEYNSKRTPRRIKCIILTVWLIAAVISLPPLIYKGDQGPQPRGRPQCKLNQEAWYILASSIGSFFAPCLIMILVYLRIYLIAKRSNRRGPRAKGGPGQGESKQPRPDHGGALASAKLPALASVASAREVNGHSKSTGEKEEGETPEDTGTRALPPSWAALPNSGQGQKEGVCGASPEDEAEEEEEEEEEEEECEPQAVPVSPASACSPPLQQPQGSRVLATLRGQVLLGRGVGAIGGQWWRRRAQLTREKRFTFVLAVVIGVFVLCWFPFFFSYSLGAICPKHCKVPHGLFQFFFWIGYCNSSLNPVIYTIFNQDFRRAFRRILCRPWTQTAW
Procedure: as §1

ADRA2BC = target: T3, ADRA2BC (Homo sapiens, UniProt P18825); test: GPCR β-arrestin screening (PathHunter gpcrMAX/orphanMAX), ADRA2BC; conditions: conolidine 10 μM
T3 sequence (P18825 1-462): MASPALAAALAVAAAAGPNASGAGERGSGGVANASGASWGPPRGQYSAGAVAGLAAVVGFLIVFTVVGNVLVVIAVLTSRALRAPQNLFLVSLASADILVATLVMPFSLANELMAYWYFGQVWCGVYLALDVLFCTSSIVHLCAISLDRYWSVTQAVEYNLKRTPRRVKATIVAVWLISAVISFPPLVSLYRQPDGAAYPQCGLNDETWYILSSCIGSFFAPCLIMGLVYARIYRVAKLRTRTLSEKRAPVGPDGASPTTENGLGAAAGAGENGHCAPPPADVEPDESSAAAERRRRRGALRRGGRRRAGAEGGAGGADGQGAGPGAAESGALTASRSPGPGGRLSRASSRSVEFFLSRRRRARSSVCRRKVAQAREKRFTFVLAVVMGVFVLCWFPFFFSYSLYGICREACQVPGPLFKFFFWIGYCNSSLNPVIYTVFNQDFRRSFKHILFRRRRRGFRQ
Procedure: as §1

HRH2 = HRH2 (Homo sapiens, UniProt P25021); test: GPCR β-arrestin screening (PathHunter gpcrMAX/orphanMAX), HRH2; conditions: conolidine 10 μM
Procedure: as §1

[1] = target: T4, Mast cells G protein-coupled receptor-X2 (MRGPRX2) (Homo sapiens, UniProt Q96LB1); test: GPCR β-arrestin screening (PathHunter gpcrMAX/orphanMAX), MRGPRX2; conditions: conolidine 10 μM
T4 sequence (Q96LB1 1-330): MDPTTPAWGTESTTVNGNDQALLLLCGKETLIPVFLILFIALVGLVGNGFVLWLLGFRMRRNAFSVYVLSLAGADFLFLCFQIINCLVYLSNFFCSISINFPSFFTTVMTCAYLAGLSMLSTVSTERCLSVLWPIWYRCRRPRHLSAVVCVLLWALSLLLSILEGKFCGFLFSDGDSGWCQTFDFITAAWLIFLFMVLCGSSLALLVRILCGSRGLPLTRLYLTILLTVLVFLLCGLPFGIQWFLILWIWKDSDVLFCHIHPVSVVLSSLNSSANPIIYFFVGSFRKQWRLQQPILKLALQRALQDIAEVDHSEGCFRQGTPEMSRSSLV
Procedure: as §1

[2] = target: cannabinoid receptor 2 (CNR2) (Homo sapiens, UniProt P34972); test: GPCR β-arrestin screening (PathHunter gpcrMAX/orphanMAX), CNR2; conditions: conolidine 10 μM
Procedure: as §1

Chain of HRH2 (P25021 whole entry): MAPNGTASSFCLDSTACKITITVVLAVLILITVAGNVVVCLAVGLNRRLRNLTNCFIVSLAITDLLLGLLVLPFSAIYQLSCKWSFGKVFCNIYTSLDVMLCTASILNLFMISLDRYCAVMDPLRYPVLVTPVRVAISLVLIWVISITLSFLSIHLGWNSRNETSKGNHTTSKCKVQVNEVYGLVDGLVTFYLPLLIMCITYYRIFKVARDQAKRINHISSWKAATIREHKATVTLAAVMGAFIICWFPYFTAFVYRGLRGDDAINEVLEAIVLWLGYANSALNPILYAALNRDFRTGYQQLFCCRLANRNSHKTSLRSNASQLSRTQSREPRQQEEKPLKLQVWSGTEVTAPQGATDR
Chain of cannabinoid receptor 2 (CNR2) (P34972 whole entry): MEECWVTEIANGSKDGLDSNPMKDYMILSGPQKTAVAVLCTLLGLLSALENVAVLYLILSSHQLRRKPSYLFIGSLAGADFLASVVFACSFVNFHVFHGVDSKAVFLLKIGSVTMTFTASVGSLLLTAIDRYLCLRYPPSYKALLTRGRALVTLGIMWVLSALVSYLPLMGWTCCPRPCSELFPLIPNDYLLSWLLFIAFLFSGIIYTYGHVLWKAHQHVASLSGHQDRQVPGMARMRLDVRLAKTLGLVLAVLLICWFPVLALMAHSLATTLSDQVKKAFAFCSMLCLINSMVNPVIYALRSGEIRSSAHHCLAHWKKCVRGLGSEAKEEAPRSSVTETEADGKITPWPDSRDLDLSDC
Chain of ACKR3 (P25106 whole entry): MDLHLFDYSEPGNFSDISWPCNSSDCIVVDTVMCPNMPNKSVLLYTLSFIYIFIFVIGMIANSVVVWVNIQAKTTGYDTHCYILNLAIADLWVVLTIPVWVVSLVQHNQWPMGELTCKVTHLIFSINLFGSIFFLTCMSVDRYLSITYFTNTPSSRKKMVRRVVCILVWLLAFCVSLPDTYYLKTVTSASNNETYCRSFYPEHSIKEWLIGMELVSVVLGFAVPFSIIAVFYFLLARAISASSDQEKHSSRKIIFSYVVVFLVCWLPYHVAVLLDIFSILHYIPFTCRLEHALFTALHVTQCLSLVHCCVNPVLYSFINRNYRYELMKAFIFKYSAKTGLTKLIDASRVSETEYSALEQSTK

Compound | activation of CCR3 (β-arrestin-1 recruitment) in receptor panel (CCR3) | response of ACKR3 in GPCR screening (ACKR3) | activity towards ADRA2B in GPCR screening (ADRA2B) | activity towards ADRA2BC in GPCR screening (ADRA2BC) | activity towards HRH2 in GPCR screening (HRH2) | activation of MRGPRX2 in GPCR screening [1] | activation of CNR2 in GPCR screening [2]
C/C=C1/CN2CC[C@H]1C(=O)c1[nH]c3ccccc3c1C2 [WW-1, (4E,5R)-4-ethylidene-1,4,5,7-tetrahydro-2,5-ethanoazocino[4,3-b]indol-6(3H)-one] | weak activation | most responsive receptor | No activity was detected | No activity was detected | No activity was detected | only partially activated | only partially activated
C/C=C1/CN(CCCCC)CC[C@H]1C(=O)c1cc2ccccc2[nH]1 [WW-12, [(3E,4R)-3-ethylidene-1-pentylpiperidin-4-yl](1H-indol-2-yl)methanone] | weak activation | – | – | – | – | – | –
